Results: patent US20180179167A1, “Nrf2 REGULATORS” (GlaxoSmithKline Intellectual Property Development Limited, priority 2015, published 2018)

Each compound was assayed on NQO1 specific enzyme activity in BEAS-2B cells (assay: BEAS-2B NQO1 MTT Assay). Conditions: Homo sapiens, EC50 of NQO1 specific activity induction, 48 hours with compound.
Format: cell-based
From the text: NAD(P)H:quinone oxidoreductase 1 (NQO1), also called DT diaphorase, is a homodimeric FAD-containing enzyme that catalyzes obligatory NAD(P)H-dependent two-electron reductions of quinones and protects cells against the toxic and neoplastic effects of free radicals and reactive oxygen species arising from one-electron reductions. The transcription of NQO1 is finely regulated by Nrf2, and thus NQO1 activity is a good marker for Nrf2 activation. On day one, frozen BEAS-2B cells (ATCC) are thawed in a water bath, counted, and re-suspended at a concentration of 250,000 cells/mL. Fifty microliters of cells are plated in 384 well black clear-bottomed plates. Plates are incubated at 37° C., 5% CO2 overnight. On day two, plates are centrifuged and 50 nL of compound or controls are added to the cells. Plates are then incubated at 37° C., 5% CO2 for 48 hours. On day four, medium is aspirated from the plate and crude cell lysates are made by adding 13 uL of 1× Cell Signaling Technologies lysis buffer with 1 Complete, Mini, EDTA-free Protease Inhibitor Tablet (Roche) for each 10 mL of lysis buffer . After lysis plates are incubated for 20 minutes at room temperature. Two microliters of lysate are removed for use in Cell Titer Glo assay (Promega) and MTT cocktail is prepared (Prochaska et. al. 1998) for measurement of NQO1 activity. Fifty microliters of MTT cocktail is added to each well, plate is centrifuged, and analyzed on an Envision plate reader (Perkin Elmer) using Absorbance 570 nm label for 30 minutes. Product formation is measured kinetically and the EC50 of NQO1 specific activity induction is calculated by plotting the change in absorbance (Delta OD/min) versus the log of compound concentration followed by 3-parameter fitting.
EC50s <1 nM (+++++), EC50s 10 nM-1 nM (++++), EC50s 10-100 nM (+++), EC50s 100 nM-1 uM (++), EC50s 1-10 uM (+), EC50s >10 uM (−), or were not determined (ND).

Compared with `COc1cc(C(CC(=O)O)c2ccc(C)c(CN(C)C(=O)OC(C)(C)C)c2)cc2nnn(C)c12` (centres unmarked) [Example 4, 3-[3-({[(tert-Butoxy)carbonyl](methyl)amino}methyl)-4-methylphenyl]-3-(7-methoxy-1-methyl-1H-1,2,3-benzotriazol-5-yl)propanoic acid], `COc1cc(C(CC(=O)O)c2ccc(Cl)c(CN(C)C(=O)OC(C)(C)C)c2)cc2nnn(C)c12` (centres unmarked) [Example 6, 3-(3-(((tert-Butoxycarbonyl)(methyl)amino)methyl)-4-chlorophenyl)-3-(7-methoxy-1-methyl-1H-benzo[d][1,2,3]triazol-5-yl)propanoic acid] is lower in EC50: 1000 to 10000 nM for the first, 100 to 1000 nM for the second.

`CCc1ccc(CN(Cc2cc(C(CC(=O)O)c3ccc4c(nnn4C)c3C)ccc2C)C(C)=O)cc1` (centres unmarked) [Example 16, 3-(1,4-Dimethyl-1H-benzo[d][1,2,3]triazol-5-yl)-3-(3-((N-(4-ethylbenzyl)acetamido)methyl)-4-methylphenyl)propanoic acid] and `COc1ccc(CN(Cc2cc(C(CC(=O)O)c3ccc4c(nnn4C)c3C)ccc2C)C(C)=O)cc1` (centres unmarked) [Example 15, 3-(1,4-Dimethyl-1H-benzo[d][1,2,3]triazol-5-yl)-3-(3-((N-(4-methoxybenzyl)acetamido)methyl)-4-methylphenyl)propanoic acid] fall in the same range of EC50: 1000 to 10000 nM for the first, 1000 to 10000 nM for the second.

First: CCC1CCC(CN(Cc2cc(C(CC(=O)O)c3ccc4c(nnn4C)c3C)ccc2C)C(C)=O)CC1 (centres unmarked) [Example 17, 3-(1,4-Dimethyl-1H-benzo[d][1,2,3]triazol-5-yl)-3-(3-((N-((4-ethylcyclohexyl)methyl)acetamido)methyl)-4-methylphenyl)propanoic acid]
Second: CCC1CCC(CN(Cc2cc(C(CC(=O)O)c3ccc4c(nnn4C)c3C)ccc2C)C(N)=O)CC1 (centres unmarked) [Example 19, 3-(1,4-Dimethyl-1H-benzo[d][1,2,3]triazol-5-yl)-3-(3-((1-((4-ethylcyclohexyl)methyl)ureido)methyl)-4-methylphenyl)propanoic acid]
The EC50 of the first is lower: 10 to 100 nM for the first, 1000 to 10000 nM for the second.

`Cc1ccc(C(CC(=O)O)c2ccc3c(c2)nnn3C)cc1OCC(=O)N(C)C` (centres unmarked) [Example 7, 3-(3-(2-(Dimethylamino)-2-oxoethoxy)-4-methylphenyl)-3-(1-methyl-1H-benzo[d][1,2,3]triazol-5-yl)propanoic acid] and `CCC(C)OC(=O)N(C)Cc1cc(C(CC(=O)O)c2ccc3c(c2)nnn3C)ccc1Cl` (centres unmarked) [Example 3, 3-[3-({[(Butan-2-yloxy)carbonyl](methyl)amino}methyl)-4-chlorophenyl]-3-(1-methyl-1H-1,2,3-benzotriazol-5-yl)propanoic acid] fall in the same range of EC50: 1000 to 10000 nM for the first, 1000 to 10000 nM for the second.

`CN(Cc1cc(C(CC(=O)O)c2ccc3c(c2)nnn3C)ccc1Cl)C(=O)OC1CCCC1` (centres unmarked) [Example 2, 3-[4-Chloro-3-({[(cyclopentyloxy)carbonyl](methyl)amino}methyl)phenyl]-3-(1-methyl-1H-1,2,3-benzotriazol-5-yl)propanoic acid] and `CN(Cc1cc(C(CC(=O)O)c2ccc3c(c2)nnn3C)ccc1Cl)C(=O)OC1CCCCC1` (centres unmarked) [Example 5, 3-(4-Chloro-3-((((cyclohexyloxy)carbonyl)(methyl)amino)methyl)phenyl)-3-(1-methyl-1H-benzo[d][1,2,3]triazol-5-yl)propanoic acid] fall in the same range of EC50: 1000 to 10000 nM for the first, 1000 to 10000 nM for the second.

First: Cc1c(C(CC(=O)O)c2ccc(Cl)c(CN(C)C(=O)OC(C)(C)C)c2)ccc2c1nnn2C (centres unmarked) [Example 1, 3-[3-({[(tert-Butoxy)carbonyl](methyl)amino}methyl)-4-chlorophenyl]-3-(1,4-dimethyl-1H-1,2,3-benzotriazol-5-yl)propanoic acid]
Second: COCC(C)(C)OC(=O)N(C)Cc1cc(C(CC(=O)O)c2ccc3c(nnn3C)c2C)ccc1C (centres unmarked) [Example 10]
The EC50 of the first is lower: 100 to 1000 nM for the first, 1000 to 10000 nM for the second. The first is the more potent here.

First: CCC1CCC(CN(Cc2cc(C(c3ccc4c(nnn4C)c3C)C(C)(C)C(=O)O)ccc2C)C(N)=O)CC1 (centres unmarked) [Example 22, 3-(1,4-Dimethyl-1H-benzo[d][1,2,3]triazol-5-yl)-3-(3-((1-((4-ethylcyclohexyl)methyl)ureido)methyl)-4-methylphenyl)-2,2-dimethylpropanoic acid]
Second: CCC1CCC(O)(CN(Cc2cc([C@@H](c3ccc4c(nnn4C)c3C)C(C)(C)C(=O)O)ccc2C)C(N)=O)CC1 (stereo partly drawn) [Example 24, (S)-3-(1,4-Dimethyl-1H-benzo[d][1,2,3]triazol-5-yl)-3-(3-((1-((4-ethyl-1-hydroxycyclohexyl)methyl)ureido)methyl)-4-methylphenyl)-2,2-dimethylpropanoic acid]
The EC50 of the first is lower: 1 to 10 nM for the first, 10 to 100 nM for the second.

First: CC(=O)N(Cc1cc(C(CC(=O)O)c2ccc3c(nnn3C)c2C)ccc1C)CC1CCCCCC1 (centres unmarked) [Example 27, 3-(3-((N-(Cycloheptylmethyl)acetamido)methyl)-4-methylphenyl)-3-(1,4-dimethyl-1H-benzo[d][1,2,3]triazol-5-yl)propanoic acid]
Second: CC(=O)N(Cc1cc(C(CC(=O)O)c2ccc3c(nnn3C)c2C)ccc1C)CC1CCCCC1 (centres unmarked) [Example 11, 3-(3-((N-(Cyclohexylmethyl)acetamido)methyl)-4-methylphenyl)-3-(1,4-dimethyl-1H-benzo[d][1,2,3]triazol-5-yl)propanoic acid]
The EC50 of the first is lower: 100 to 1000 nM for the first, 1000 to 10000 nM for the second.

Compared with `COc1cc(C(CC(=O)O)c2ccc(C)c(CN(CC3CCCCC3)C(C)=O)c2)cc2nnn(C)c12` (centres unmarked) [Example 20, 3-(3-((N-(Cyclohexylmethyl)acetamido)methyl)-4-methylphenyl)-3-(7-methoxy-1-methyl-1H-benzo[d][1,2,3]triazol-5-yl)propanoic acid], `COc1cc(C(CC(=O)O)c2ccc(Cl)c(CN(C)C(=O)OC3CCCC3)c2)cc2nnn(C)c12` (centres unmarked) [Example 9, 3-(4-Chloro-3-((((cyclopentyloxy)carbonyl)(methyl)amino)methyl)phenyl)-3-(7-methoxy-1-methyl-1H-benzo[d][1,2,3]triazol-5-yl)propanoic acid] is higher in EC50: 100 to 1000 nM for the first, 1000 to 10000 nM for the second. The first is the more potent here.

`Cc1ccc([C@@H](c2ccc3c(nnn3C)c2C)C(C)(C)C(=O)O)cc1CN(CC1(O)CCCCCC1)C(N)=O` [Example 25, (S)-3-(1,4-Dimethyl-1H-benzo[d][1,2,3]triazol-5-yl)-3-(3-((1-((1-hydroxycycloheptyl)methyl)ureido)methyl)-4-methylphenyl)-2,2-dimethylpropanoic acid] and `CC(=O)N(Cc1cc(C(c2ccc3c(nnn3C)c2C)C(C)(C)C(=O)O)ccc1C)CC1(O)CCCCC1` (centres unmarked) [Example 26, 3-(1,4-Dimethyl-1H-benzo[d][1,2,3]triazol-5-yl)-3-(3-((N-((1-hydroxycyclohexyl)methyl)acetamido)methyl)-4-methylphenyl)-2,2-dimethylpropanoic acid] fall in the same range of EC50: 100 to 1000 nM for the first, 100 to 1000 nM for the second.

`CC(=O)N(Cc1ccccc1)Cc1cc(C(CC(=O)O)c2ccc3c(nnn3C)c2C)ccc1C` (centres unmarked) [Example 12, 3-(3-((N-Benzylacetamido)methyl)-4-methylphenyl)-3-(1,4-dimethyl-1H-benzo[d][1,2,3]triazol-5-yl)propanoic acid] and `CC(=O)N(Cc1cccc(C)c1)Cc1cc(C(CC(=O)O)c2ccc3c(nnn3C)c2C)ccc1C` (centres unmarked) [Example 13, 3-(1,4-Dimethyl-1H-benzo[d][1,2,3]triazol-5-yl)-3-(4-methyl-3-((N-(3-methylbenzyl)acetamido)methyl)phenyl)propanoic acid] fall in the same range of EC50: 1000 to 10000 nM for the first, 1000 to 10000 nM for the second.

Compared with `Cc1ccc([C@@H](c2ccc3c(nnn3C)c2C)C(C)(C)C(=O)O)cc1CN(CC1CCCCCC1)C(N)=O` [Example 23, (S)-3-(3-((1-(Cycloheptylmethyl)ureido)methyl)-4-methylphenyl)-3-(1,4-dimethyl-1H-benzo[d][1,2,3]triazol-5-yl)-2,2-dimethylpropanoic acid], `Cc1ccc(C(CC(=O)O)c2ccc3c(nnn3C)c2C)cc1CN(CC1CCCCC1)C(N)=O` (centres unmarked) [Example 18, 3-(3-((1-(Cyclohexylmethyl)ureido)methyl)-4-methylphenyl)-3-(1,4-dimethyl-1H-benzo[d][1,2,3]triazol-5-yl)propanoic acid] is higher in EC50: 1 to 10 nM for the first, 1000 to 10000 nM for the second.

`CC(=O)N(Cc1cc(C(CC(=O)O)c2ccc3c(nnn3C)c2C)ccc1C)Cc1cccc(C)c1C` (centres unmarked) [Example 14, 3-(1,4-Dimethyl-1H-benzo[d][1,2,3]triazol-5-yl)-3-(3-((N-(2,3-dimethylbenzyl)acetamido)methyl)-4-methylphenyl)propanoic acid] and `Cc1ccc(C(CC(=O)O)c2ccc3c(nnn3C)c2C)cc1CN(C)C(=O)Oc1ccc([N+](=O)[O-])cc1` (centres unmarked) [Example 8, 3-(1,4-Dimethyl-1H-benzo[d][1,2,3]triazol-5-yl)-3-(4-methyl-3-((methyl((4-nitrophenoxy)carbonyl)amino)methyl)phenyl)propanoic acid] fall in the same range of EC50: 1000 to 10000 nM for the first, 1000 to 10000 nM for the second.
